Experimental data from patent publication US20250064773A1, “TARGETING ERO1 ALPHA WITH AURONE DERIVATIVES” (West Virginia University Board of Governors on behalf of …, priority 2021, published 2025).
One block for each compound: values may come before it.

Legend:
purified human ERO1α = biological target: T1, purified human ERO1α (Homo sapiens, UniProt Q96HE7, C104A/C131A/C166A); assay: Recombinant ERO1α enzyme assay (Amplex Red); type: biochemical; details: for inhibition at 10 µM: average of N = 3 ± S.D., read-out: % inhibition (10 μM) of ERO1α enzyme activity compared to vehicle control
T1 construct: made in house
T1 sequence (Q96HE7 22-468 C104A/C131A/C166A): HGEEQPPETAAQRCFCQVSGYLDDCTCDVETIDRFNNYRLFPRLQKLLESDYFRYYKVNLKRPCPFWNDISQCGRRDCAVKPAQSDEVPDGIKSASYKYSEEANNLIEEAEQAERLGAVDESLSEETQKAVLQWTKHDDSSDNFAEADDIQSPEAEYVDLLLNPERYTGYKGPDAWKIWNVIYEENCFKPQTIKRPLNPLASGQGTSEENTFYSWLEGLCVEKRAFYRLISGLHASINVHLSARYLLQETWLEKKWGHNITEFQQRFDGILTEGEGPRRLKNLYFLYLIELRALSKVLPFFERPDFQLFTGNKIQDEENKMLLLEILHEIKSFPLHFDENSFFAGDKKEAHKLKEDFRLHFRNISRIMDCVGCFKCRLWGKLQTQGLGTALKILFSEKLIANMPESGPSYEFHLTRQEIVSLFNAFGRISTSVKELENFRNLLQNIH
Experimental: Based on previous work which established an aurone chemical class of compounds as FAD containing enzyme inhibitors^37, we evaluated sulfuretin analogs for ERO1α enzyme inhibition.
Quantification of enzymatic activity of ERO1α was performed using the Amplex Red as previously described^6.

PC-9 cells = assay: Soft agar clonogenic assay, PC-9; type: cell-based; details: 14 days, 3.75-15 μM
Experimental: (§1) We utilized an MTT assay to determine the potency of the compounds for inhibiting cell growth. […] We next asked whether T151742 induced inhibition of cell growth was dependent on ERO1α expression. As shown in FIG. 6C two ERO1α deleted clones in the PC-9 cell line were isolated. Using an MTT assay to determine overall cellar viability, a non-targeted control (scramble), and both ERO1α knockout clones was subjected to treatment with T151742 for 72 hours (See FIG. 6D). […] Though only slight differences were observed between T151742 and EN-460 we tested the effects of these compounds in a clonogenic assay which is a better test for inhibition of self-renewal.
FIG. 7A and FIG. 7B show 1000 cells/well were plated in a 12-well plate in triplicate with either 0.5% DMSO, T151742, or EN-460 and allowed to form colonies for 14 days. Colonies were subsequently stained with 0.01% Crystal Violet, imaged, and quantified using ImageJ. […] Colonies were stained with 0.01% Crystal Violet, imaged, and quantified using ImageJ.
Cell Lines: PC-9 cell line used was obtained from Sigma Aldrich and grown in RPMI 1640 medium with 10% fetal bovine serum and 1% penicillin/streptomycin. […] Plate was then read on the BioTek Cytation 5 at 530/590 nm. […] Plate was then read at 570 nm. […] Images were then quantified using ImageJ. […]

LSD-1 = LSD-1 (Homo sapiens, UniProt O60341); details: cited from earlier work
MAO-A = biological target: T2, MAO-A (Homo sapiens, UniProt P21397); details: cited from earlier work
T2 sequence (P21397 1-527): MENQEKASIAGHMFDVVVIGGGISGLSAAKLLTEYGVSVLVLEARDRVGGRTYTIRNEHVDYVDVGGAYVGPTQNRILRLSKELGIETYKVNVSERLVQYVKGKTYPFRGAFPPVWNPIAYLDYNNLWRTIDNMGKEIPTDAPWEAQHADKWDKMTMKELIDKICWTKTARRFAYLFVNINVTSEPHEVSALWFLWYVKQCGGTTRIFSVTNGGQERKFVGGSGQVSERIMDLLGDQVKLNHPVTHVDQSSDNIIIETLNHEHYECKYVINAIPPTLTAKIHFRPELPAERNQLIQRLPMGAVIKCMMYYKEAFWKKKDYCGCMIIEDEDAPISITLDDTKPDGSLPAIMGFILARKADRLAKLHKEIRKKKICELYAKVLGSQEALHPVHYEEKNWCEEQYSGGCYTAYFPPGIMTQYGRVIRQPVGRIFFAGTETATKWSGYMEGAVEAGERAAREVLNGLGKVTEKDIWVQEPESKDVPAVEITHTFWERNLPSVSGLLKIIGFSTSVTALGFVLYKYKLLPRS

MAO-B = biological target: T3, MAO-B (Homo sapiens, UniProt P27338); details: cited from earlier work
T3 sequence (P27338 1-520): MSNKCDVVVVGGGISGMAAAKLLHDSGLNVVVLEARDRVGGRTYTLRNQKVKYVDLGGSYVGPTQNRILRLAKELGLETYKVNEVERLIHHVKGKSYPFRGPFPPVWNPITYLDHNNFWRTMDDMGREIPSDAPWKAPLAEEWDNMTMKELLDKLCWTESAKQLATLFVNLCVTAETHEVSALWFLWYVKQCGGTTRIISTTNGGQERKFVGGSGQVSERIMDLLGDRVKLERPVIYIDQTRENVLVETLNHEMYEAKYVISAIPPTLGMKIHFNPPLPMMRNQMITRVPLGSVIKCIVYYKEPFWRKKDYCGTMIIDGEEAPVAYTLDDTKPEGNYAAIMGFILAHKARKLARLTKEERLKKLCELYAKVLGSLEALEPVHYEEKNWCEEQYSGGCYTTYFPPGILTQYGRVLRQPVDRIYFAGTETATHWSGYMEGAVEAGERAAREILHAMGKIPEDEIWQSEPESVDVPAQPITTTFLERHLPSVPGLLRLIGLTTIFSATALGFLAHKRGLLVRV

[1] = system: PC-9 non-small cell lung cancer cell line; assay: MTT viability assay, PC-9; type: cell-based; details: 72 h, read-out: IC50, MTT assay, PC-9
Experimental: as §1
Cell Lines: PC-9 cell line used was obtained from Sigma Aldrich and grown in RPMI 1640 medium with 10% fetal bovine serum and 1% penicillin/streptomycin. HCC4006, U266, MM1.s, and Beas-2B cell lines were obtained from ATCC and cultured in either RPMI 1640 or DMEM with 10% fetal bovine serum and 1% penicillin/streptomycin. All cell lines were also checked for mycoplasma every six months and subjected to short tandem repeat (STR) analysis for cell line validation. CRISPR Cas9: CRISPR Guide RNA 2 targeting ERO1α and CRISPR Guide RNA 4 were purchased from Genscript in the pLentiCRISPR V2 plasmid containing puromycin/ampicillin selection marker. Lentivirus was made from HEK 293T cells by co-transfection with GuideRNA of interest, pVSVG, and pPAX2 plasmids. Lentivirus was collected after 48 hours and concentrated using 40% PEG8000. […] Plate was then read on the BioTek Cytation 5 at 530/590 nm. […] Plate was then read at 570 nm. Treated wells were all compared to DMSO control wells to calculate percent growth inhibition and the IC50 was calculated using GraphPad (log(inhibitor) vs growth inhibition). […] Images were then quantified using ImageJ. […] Cells were aliquoted at 1 million cells per PCR tube in PBS and heated in Bio-Rad T100 thermal cycler at indicated temperatures (RT, 46° C., 48° C., 50° C., 52° C., 54° C., 56°, 58° C., and 60° C.) for 3 minutes and aggregation temperature was determined by western blot analysis. […]

inhibition at 10 µM (purified human ERO1α): 20.7 ± 4.92%
Structure (SMILES): O=C1/C(=C/c2c(F)cccc2Cl)Oc2cc(O)ccc21 [SR-F-125]

inhibition at 10 µM (purified human ERO1α): 38.7 ± 1.56%
Structure (SMILES): O=C1/C(=C/c2ccc(-c3ccccc3)cc2)Oc2cc(O)ccc21 [SR-F-126]

The next lines start with the compound.

Structure (SMILES): N[C@@H]1C[C@H]1c1ccccc1 (racemic) [tranylcypromine, reference compound]
inhibition of ERO1α activity (concentration response, FIG. 8) (purified human ERO1α; covalent modifiers of FAD): did not inhibit

Structure (SMILES): O=C(O)c1cc(N2N=C(C(F)(F)F)/C(=C/c3ccc(-c4ccccc4)o3)C2=O)ccc1Cl [EN-460, reference compound]
IC50 (purified human ERO1α; purified human ERO1α 0.0625 mg/mL, PDI 0.0625 mg/mL, mean ± S.D., N=3): 16.5 ± 3.47 µM
activity in clonogenicity assay (colony number) (PC-9 cells): devoid of activity
inhibition of LSD-1 (LSD-1): inhibits
inhibition of / activity against MAO-A (MAO-A): inhibits
inhibition of / activity against MAO-B (MAO-B): inhibits

Structure (SMILES): O=C(O)c1ccc(/C=C2\Oc3cc(O)ccc3C2=O)cc1 [SR-F-114]
IC50 [1]: 32.4 ± 6.01 µM
